Consider three molecules from patent US20250099472A1, “RUXOLITINIB FOR THE TREATMENT OF PRURIGO NODULARIS” (INCYTE CORPORATION, priority 2021, published 2025).

The test system of series [1] is skin biopsies from active disease, untreated, prurigo nodularis patients. The experiment in a line: Ruxolitinib-mediated pharmacological inhibition of PN pathophysiology: proteins secreted by cultured PN skin explants, Procarta Multiplex Immunoassay. The class given is cell-based, human. Particulars: for percent inhibition of IFN-gamma / percent inhibition of IL-2 / percent inhibition of IL-8 (CXCL8) / percent inhibition of IL-10 / percent inhibition of IL-17 alpha (CTLA-8) / percent inhibition of IP-10 (CXCL10): culture supernatant vs DMSO. Here is the method: Full-thickness cutaneous skin biopsies were obtained from active disease, untreated, prurigo nodularis patients. Single 4 mm-punch biopsies were obtained from the same lesion for each patient and longitudinally divided into two pieces (see FIG. 1). FIG. 1 depicts a representation of skin punch biopsies used for the JAK1/JAK2 mediated pharmacological inhibition of PN pathophysiology. Biopsies were cultured for 8 days in KBM media+CaCl2 and refreshed every 2-3 days. Ruxolitinib phosphate or DMSO (control) was added to the cell culture media. Conditioned supernatants collected during/prior to media refresh were stored at −80° C. for subsequent analysis. On day 8, cultures were terminated and tissue RNA isolated for subsequent analysis.
Collected supernatants were analyzed to quantify chemokines, cytokines, and growth factors secreted by skin explants in culture and which are involved in inflammation. A total of 51 proteins were detected and quantified in culture supernatants by Procarta Multiplex Immunoassay (Thermo Fisher, Waltham, MA). Supernatants and standards were incubated at 4° C. overnight. Assay plates were read on a Luminex 200 Instrument (Luminex Corporation, Austin, TX). The concentration was extrapolated from the antigen standard curve of each analyte. The percent inhibition determined for each analyte as the difference in protein concentration in cultures with DMSO (CD) versus those with ruxolitinib (CJ), (CD−CJ)/CD (see FIG. 2).

A short description of series [2]: Solubility of ruxolitinib free base or 1:1 phosphate salt in potential solvents (HPLC). It is filed as physicochemical. As to conditions: room temperature, 24 hours. Here is the method:
First, in order to determine the solubility of ruxolitinib (free base) or its 1:1 phosphate salt, approximately 5 mL of a potential solvent was added to approximately 50 mg of the API or its salt at room temperature. The mixtures were suspended and rotated on a wheel. If the mixtures became clear solutions, more solid material was added. The suspensions were then suspended over 24 hours. The samples were filtered through 0.2 micron filters. The liquid portions were collected and diluted with 50/50 water methanol/water. The concentrations of the diluted samples were analyzed by HPLC. When the free base or salt was fairly insoluble, the results are approximate only.

The test system of another series is PN skin. Particulars: PN skin cultured with nemolizumab; cited from earlier work.
A further series concerns PN patients. As to conditions: inhibition of IL-31; cited from earlier work.

Take `Cc1n[nH]c(C)c1-c1cnn(C2(CC#N)CN(c3cc(F)c(C(=O)N[C@@H](C)C(F)(F)F)cc3F)C2)c1` [4-[3-(cyanomethyl)-3-(3′,5′-dimethyl-1H,1′H-4,4′-bipyrazol-1-yl)azetidin-1-yl]-2,5-difluoro-N-[(1S)-2,2,2-trifluoro-1-methylethyl]benzamide]: in series [1] (48 hours, same assays), the “percent inhibition of IL-5” value was 20.25% and the “percent inhibition of IL-22” value is 11.16%.
As for `N#CC[C@H](C1CCCC1)n1cc(-c2ncnc3[nH]ccc23)cn1` [ruxolitinib], the Solubility in series [2] (C12-15 alcohol benzoate, approximate, listed as Free Base) is 150 µg/mL; in series [2] (Caprylic triglyceride, approximate, listed as Free Base) it was 150 µg/mL; in series [2] (Dimethicone, approximate, listed as Free Base), 150 µg/mL; in series [2] (Isopropanol, listed as Free Base), 450 µg/mL; in series [2] (Isopropyl myristate, approximate), 80 µg/mL; in series [2] (Isosorbide dimethyl ether, listed as Free Base), 300 µg/mL. In addition, the Solubility in series [2] (Mineral oil, approximate) was 80 µg/mL; in series [2] (Olelyl alcohol, approximate, listed as Free Base), 80 µg/mL; in series [2] (Propylene glycol, listed as Free Base), 18200 µg/mL; in series [2] (Water/glycerin/trolamine (40/40/20)), 13600 µg/mL. The figures for the “percent inhibition of IFN-gamma” value in series [1] (48 hr) and in series [1] (96 hr) were 5.0% and 11.6%, respectively. The “percent inhibition of IL-2” value in series [1] (48 hr) is 17.8%; in series [1] (96 hr) it was 16.6%. The “percent inhibition of IL-8 (CXCL8)” value was 13.7% in series [1] (48 hr) and “** (no measureable inhibition)” in series [1] (96 hr). Moreover, the figures for the “percent inhibition of IL-10” value in series [1] (48 hr) and in series [1] (96 hr) were 36.2% and 39.9%, respectively. Besides, the “percent inhibition of IL-17 alpha (CTLA-8)” value is recorded as 63.9% in series [1] (48 hr) and 57.6% in series [1] (96 hr). The “percent inhibition of IP-10 (CXCL10)” value in series [1] (48 hr) was found to be 9.7%; in series [1] (96 hr), 60.3%.

B1: nemolizumab: an IL-31 inhibitor; anti-IL-31 antibody (antibody, chains of the INN, looked up)
heavy: QVQLVQSGAEVKKPGASVKVSCKASGYTFTGYIMNWVRQAPGQGLEWMGLINPYNGGTDYNPQFQDRVTITADKSTSTAYMELSSLRSEDTAVYYCARDGYDDGPYTLETWGQGTLVTVSSASTKGPSVFPLAPSSKSTSGGTAALGCLVKDYFPEPVTVSWNSGALTSGVHTFPAVLQSSGLYSLSSVVTVPSSNFGTQTYTCNVDHKPSNTKVDKTVERKSCVECPPCPAPPVAGPSVFLFPPKPKDTLMISRTPEVTCVVVDVSQEDPEVQFNWYVDGVEVHNAKTKPREEQFNSTFRVVSVLTVVHQDWLNGKEYKCKVSNKGLPAPIEKTISKTKGQPREPQVYTLPPSQEEMTKNQVSLTCLVKGFYPSDIAVEWESNGQPENNYKTTPPMLDSDGSFFLYSKLTVDKSRWQEGNVFSCSVMHEALHNHYTQKSLSLSP
light: DIQMTQSPSSLSASVGDRVTITCQASEDIYSFVAWYQQKPGKAPKLLIYNAQTEAQGVPSRFSGSGSGTDFTLTISSLQPEDFATYYCQHHYDSPLTFGGGTKVEIKRTVAAPSVFIFPPSDEQLKSGTASVVCLLNNFYPREAKVQWKVDNALQSGNSQESVTEQDSKDSTYSLSSTLTLSKADYEKHKVYACEVTHQGLSSPVTKSFNRGEC
For B1, in the series on PN skin, the “IL-17 levels in lesional skin” value is “reduction in IL-17 levels”. The “pruritus and skin lesions in PN patients” value with PN patients was “improvement in pruritus and skin lesions”.
